Laboratory results as given in patent US20250339454A1, “COMPOSITIONS AND METHODS FOR THE PREVENTION OF LOSS OF ORGAN FUNCTION ASSOCIATED WITH CHRONIC ORGAN DISEASE” (Revelation Biosciences, Inc., priority 2023, published 2025).
“Also recorded” adds a separate entry of the source. Like-named read-outs stand apart in the source and are kept apart here.

System: rat UUO model of acute kidney injury and chronic kidney disease
Type: in vivo
Description: Composite data represents the average of 3 anatomically distinct depths (10 images/depth/rat/group=˜60-65% of renal cortical area).

[1] = rat serum, Day 7 post UUO, all groups, dose dependent, relative to the positive control group

Molecule	UUO-induced increases in renal cortical CVF (reference compound, dose not given)	IL-6 (marker of inflammation) (UUO model)	fibrosis (collagen volume fraction, total collagen deposition via PicoSirius Red) (daily administration, dose dependent, relative to the positive control group)	UUO-induced increases in renal cortical CVF (dosed at 0.3 mg/kg)	UUO-induced increases in renal cortical CVF (dosed at 0.9 mg/kg)	IL-1β (marker of inflammation) (rat serum, Day 7 post UUO)	IL-18 (marker of inflammation) (rat serum, Day 7 post UUO)	circulating anti-inflammatory interleukin-10 (IL-10) [1]	circulating hepcidin [1]	circulating neutrophil gelatinase-associated lipocalin (NGAL) [1]	circulating transforming growth factor-β (TGF-β) (rat serum, Day 7 post UUO, daily administration, dose dependent, relative to the positive control group)
Cc1cccc(-c2[nH]c(C(C)(C)C)nc2-c2ccc3nccnc3c2)n1 [SB-525334, reference compound]	attenuated	–	–	–	–	–	–	–	–	–	–
phosphorylated hexaacyl disaccharide [REVTx-300]	–	no increase	significant reduction; also recorded: Dose-dependent reduction	attenuated	attenuated	relatively minor increase	relatively minor increase	significantly increased	significantly increased	significantly increased	significant reduction
